Measurements as given in patent US20230023847A1, “COMPOSITION FOR PREVENTING HAIR LOSS AND PROMOTING HAIR REGROWTH” (LG HOUSEHOLD & HEALTH CARE LTD., priority 2020, published 2023).

Experiments:
[1] = test system: Dkk-1; assay: Inhibition of expression of hair follicle catagen factor (Dkk-1 ELISA); assay type: cell-based; settings: 24 hours, human dermal papilla cells (hDPCs)
Description: The inhibition of the expression of the hair follicle catagen marker Dkk-1 was investigated using human dermal papilla cells (hDPCs). The human dermal papilla cells were purchased from PromoCell. The hDPCs were subcultured in an hDPC culture medium (follicle dermal papilla cell growth medium; PromoCell, Heidelberg, Germany) containing a medium additive (Supplement Mix; PromoCell, Heidelberg, Germany), 100 units/mL penicillin and […] streptomycin under the condition of 37° C. and 5% CO2. One million subcultured hDPCs were seeded onto a 100-mm cell culture dish and then cultured in an incubator at 37° C. 48 hours later, after treating with each of gypsogenin 3-O-β-D-glucuronopyranoside, deapioplatycodin D, congmunoside X and chikusetsusaponin IVa at 2 ppm or 20 ppm for 24 hours, the cell culture was subjected to Dkk-1 ELISA assay (R&D Systems, USA). The protein amount of each test group was identified by BCA assay and corrected with the result of Dkk-1 ELISA.

[2] = test system: androgen receptor; assay: Androgenic activity: transcriptional activation (MMTV-Luc luciferase reporter) assay with 1 nM DHT; assay type: cell-based, human; settings: 24 hours
Description: (§1) The stable cell line was maintained by subculturing using RPMI1640 and 10% fetal bovine serum (GIBCO BRL, Gaithersburg, Md., USA). For transcriptional activation assay, the cells were seeded in a 96-well plate, with 25,000 cells per well, while replacing the medium with phenol red-free RPMI1640 containing 5% charcoal-stripped fetal bovine serum. […] The cell culture was treated and incubated with CCK-8 at 1:10 for 2 hours. 2 hour later, the absorbance of each well was measured at 450 nm. All the experiments were 3 times and the absorbance was averaged. […] The experimental result is shown in Table 1, Table 2 and FIGS. 1-4.

[3] = test system: 22Rv1 human prostate cancer cells; assay: CCK-8 assay conducted in parallel to investigate cytotoxicity (cell viability)
Description: as §1

Structure (SMILES) | Relative expression level of Dkk-1 (% of untreated group) ([1]; 2 ppm) | Relative expression level of Dkk-1 (% of untreated group) ([1]; 20 ppm) | Androgenic activity (% of 1 nM DHT) ([2]; 0.2 ppm together with 1 nM DHT) | Androgenic activity (% of 1 nM DHT) ([2]; 2 ppm together with 1 nM DHT) | Androgenic activity (% of 1 nM DHT) ([2]; 20 ppm together with 1 nM DHT) | Androgenic activity (% of 1 nM DHT) ([2]; 200 ppm together with 1 nM DHT) | Cell viability (% of 1 nM DHT) ([3]; DHT 1 nM alone, CCK-8, 22Rv1 stable cell line) | Androgenic activity (% of 1 nM DHT) ([2]; DHT 1 nM alone, 22Rv1 MMTV-Luc stable cell line) | Cell viability (% of 1 nM DHT) ([3]; 0.2 ppm together with 1 nM DHT, CCK-8) | Cell viability (% of 1 nM DHT) ([3]; 2 ppm together with 1 nM DHT, CCK-8) | Cell viability (% of 1 nM DHT) ([3]; 20 ppm together with 1 nM DHT, CCK-8)
CC1(C)CC[C@]2(C(=O)O[C@@H]3O[C@H](CO)[C@@H](O)[C@H](O)[C@H]3O)CC[C@]3(C)C(=CC[C@@H]4[C@@]5(C)CC[C@H](O[C@@H]6O[C@H](C(=O)O)[C@@H](O)[C@H](O)[C@H]6O)C(C)(C)[C@@H]5CC[C@]43C)[C@@H]2C1 [Chikusetsusaponin IVa, chikusetsusaponin IVa] | 85.2 % of untreated group | 70.9 % of untreated group | 84.7 % of 1 nM DHT | 79 % of 1 nM DHT | 77.5 % of 1 nM DHT |  |  |  |  |  | 
CC1(C)CC[C@]2(C(=O)O[C@@H]3O[C@H](CO)[C@@H](O)[C@H](O)[C@H]3O)CC[C@]3(C)C(=CC[C@@H]4[C@@]5(C)CC[C@H](O[C@@H]6O[C@H](CO)[C@@H](O)[C@H](O[C@@H]7O[C@H](CO)[C@@H](O)[C@H](O[C@@H]8O[C@H](CO)[C@@H](O)[C@H](O)[C@H]8O)[C@H]7O)[C@H]6O[C@@H]6O[C@H](CO)[C@@H](O)[C@H](O)[C@H]6O)C(C)(C)[C@@H]5CC[C@]43C)[C@@H]2C1 [Congmunoside X, congmunoside X] | 90.8 % of untreated group | 81.2 % of untreated group |  | 104.4 % of 1 nM DHT | 85.9 % of 1 nM DHT | 14.9 % of 1 nM DHT |  |  |  |  | 
C[C@]12CCC(=O)C[C@@H]1CC[C@@H]1[C@@H]2CC[C@]2(C)[C@@H](O)CC[C@@H]12 [DHT, dihydrotestosterone, reference compound] |  |  |  |  |  |  | 100.0 % of 1 nM DHT | 100.0 % of 1 nM DHT |  |  | 
C[C@@H]1O[C@@H](O[C@H]2[C@H](OC(=O)[C@]34CCC(C)(C)C[C@H]3C3=CC[C@@H]5[C@@]6(C)C[C@H](O)[C@H](O[C@@H]7O[C@H](CO)[C@@H](O)[C@H](O)[C@H]7O)C(CO)(CO)[C@@H]6CC[C@@]5(C)[C@]3(C)C[C@H]4O)OC[C@H](O)[C@@H]2O)[C@H](O)[C@H](O)[C@H]1O[C@@H]1OC[C@@H](O)[C@H](O)[C@H]1O [Deapioplatycodin D, deapioplatycodin D] | 86.4 % of untreated group | 76.7 % of untreated group | 89.1 % of 1 nM DHT | 72.2 % of 1 nM DHT | 34.9 % of 1 nM DHT |  |  |  | 102.2 % of 1 nM DHT | 99.4 % of 1 nM DHT | 81.6 % of 1 nM DHT
CC1(C)CC[C@]2(C(=O)O)CC[C@]3(C)C(=CC[C@@H]4[C@@]5(C)CC[C@H](O[C@@H]6O[C@H](C(=O)O)[C@@H](O)[C@H](O)[C@H]6O)[C@@](C)(C=O)[C@@H]5CC[C@]43C)[C@@H]2C1 [Gypsogenin 3-O-β-D-glucuronopyranoside, gypsogenin 3-O-β-D-glucuronopyranoside] | 96.5 % of untreated group | 77.5 % of untreated group | 98.1 % of 1 nM DHT | 79.1 % of 1 nM DHT | −9.8 % of 1 nM DHT |  |  |  |  |  | 
